According to PubChem BioAssay (NCI):
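How tested: cells in 96-well plates exposed to compound for 48 hours at five concentrations. Here, GI50 denotes the concentration required for 50% inhibition of growth. TGI marks complete inhibition of growth.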 Where a SMILES comes first, the peptide text is derived from it. The star is where a group is joined. Fmoc = O=C(OCC1c2ccccc2-c2ccccc21)*; OBn = c1ccc(CO*)cc1; tBu = CC(C)(C)*

Experiments:
Assay in all cases: DTP human tumour cell line panel, 48 h
COLO 205 colon = system: COLO 205 colon
SK-OV-3 ovarian = system: SK-OV-3 ovarian
HT29 colon = system: HT29 colon
UACC-62 melanoma = system: UACC-62 melanoma
RPMI-8226 leukemia = system: RPMI-8226 leukemia
RXF 393 renal = system: RXF 393 renal
SN12C renal = system: SN12C renal
NCI-H226 lung = system: NCI-H226 lung
SNB-75 CNS = system: SNB-75 CNS
SF-295 CNS = system: SF-295 CNS

Compound | TGI (COLO 205 colon) | TGI (SK-OV-3 ovarian) | TGI (HT29 colon) | TGI (UACC-62 melanoma) | TGI (RPMI-8226 leukemia) | TGI (RXF 393 renal) | TGI (SN12C renal) | TGI (NCI-H226 lung) | TGI (SNB-75 CNS) | TGI (SF-295 CNS) | GI50 (RPMI-8226 leukemia) | GI50 (SK-OV-3 ovarian)
COc1cc(/C=C2\C(=O)N(c3ccc(Cl)cc3)C(c3ccccc3)S2(=O)=O)cc(OC)c1OC (stereo not drawn) | > 32.8 µM | > 100 µM | > 100 µM | > 63.6 µM | > 100 µM | > 100 µM | > 100 µM | > 100 µM | > 100 µM | > 100 µM | – | –
C=C(CCC(=O)N(CCc1c[nH]c2ccccc12)C(=O)c1ccccc1CSCC)C(=O)OC | 54.6 µM | > 100 µM | > 100 µM | > 100 µM | > 100 µM | > 100 µM | > 100 µM | > 100 µM | > 100 µM | > 100 µM | – | –
CCOc1ccc(Nc2nc(N)nc(N)c2N=O)cc1 | > 100 µM | > 100 µM | > 100 µM | > 100 µM | > 100 µM | > 100 µM | > 100 µM | > 100 µM | 91.7 µM | > 100 µM | – | –
CN(CC(=O)O)c1ncc2c(n1)-c1ccccc1CC2 | > 100 µM | > 100 µM | > 100 µM | > 100 µM | > 100 µM | > 100 µM | > 100 µM | > 100 µM | > 100 µM | > 100 µM | – | –
CCCCCCCC(=O)OC[n+]1cccc(-c2c(COC(=O)NC(C)C)c(COC(=O)NC(C)C)c3n2CCC3)c1 | > 100 µM | > 100 µM | > 100 µM | > 100 µM | > 100 µM | 97.2 µM | > 100 µM | > 100 µM | > 100 µM | > 100 µM | – | –
O=[N+]([O-])/C=C/c1cn(CCCCCCCCn2cc(/C=C/[N+](=O)[O-])c3ccccc32)c2ccccc12 | > 10 µM | > 10 µM | > 10 µM | > 10 µM | 1.11 µM | > 10 µM | > 10 µM | > 10 µM | > 10 µM | > 10 µM | – | –
CC(C)(C)[C@H]1NC(=O)CN1C(=O)OCc1ccccc1 | > 100 µM | > 100 µM | > 100 µM | > 100 µM | > 100 µM | > 100 µM | > 100 µM | > 100 µM | > 100 µM | > 100 µM | – | –
CC(OC(C)(C)C)C(NC(=O)OCC1c2ccccc2-c2ccccc21)C(=O)NC(Cc1ccccc1)C(=O)OCc1ccccc1 (stereo not drawn) (Fmoc-Thr(tBu)-Phe-OBn; configuration not given here) | > 100 µM | > 100 µM | > 100 µM | > 100 µM | > 100 µM | > 100 µM | > 100 µM | > 100 µM | > 100 µM | > 100 µM | – | –
CCOC(=O)NC(Nc1ccc(C(=O)O)cc1)(C(F)(F)F)C(F)(F)F | > 100 µM | > 100 µM | > 100 µM | > 100 µM | > 100 µM | > 100 µM | > 100 µM | > 100 µM | > 100 µM | > 100 µM | – | –
CC1CC[C@@]2(OC1)OC1C[C@H]3[C@@H]4CC=C5C[C@@H](OC6OC(CO)C(OC7OC(CO)C(O)C(O)C7O)C(O)C6OC6OC(C)C(O)C(O)C6O)CC[C@]5(C)[C@H]4CC[C@]3(C)C1[C@@H]2C (stereo partly drawn) | 0.91 µM | 6.96 µM | 0.951 µM | 0.876 µM | 1.33 µM | 0.857 µM | 1.52 µM | 1.67 µM | 5.47 µM | 5.27 µM | – | –
C[N+](C)([O-])C12CC3CC(CC(C3)C1)C2 | 70.9 µM | > 100 µM | > 100 µM | 47.4 µM | 93.6 µM | > 100 µM | > 100 µM | > 100 µM | > 100 µM | > 100 µM | – | –
CCOC(=O)CSc1nc(-c2ccc(Cl)cc2)c(C#N)c(=O)[nH]1 | > 100 µM | > 100 µM | > 100 µM | > 100 µM | > 100 µM | > 100 µM | > 100 µM | > 100 µM | > 100 µM | > 100 µM | – | –
CC(=O)N1CN2C(=O)CCC2c2cc(C)ccc21 (stereo not drawn) | > 100 µM | > 100 µM | > 100 µM | > 100 µM | > 100 µM | > 100 µM | > 100 µM | > 100 µM | > 100 µM | > 100 µM | – | –
c1ccc(CN2CCC(CNc3ncnc4ccccc34)C2)cc1 (stereo not drawn) | > 100 µM | > 100 µM | > 100 µM | > 100 µM | 38.7 µM | > 100 µM | > 100 µM | > 100 µM | > 100 µM | > 100 µM | – | –
CC1CC(C)(C)CC(OCCN2CCCCC2)(c2ccccc2)C1 (stereo not drawn) | 21.8 µM | 28.3 µM | 9.92 µM | 29.6 µM | 20.3 µM | 23.8 µM | 25.4 µM | 38.3 µM | 28.8 µM | 22.9 µM | – | –
CCOC(=O)C(NC(=O)c1ccccc1)(Nc1ccc(S(=O)(=O)Nc2cc(C)on2)cc1)C(F)(F)F (stereo not drawn) | > 100 µM | > 100 µM | > 100 µM | > 100 µM | > 100 µM | > 100 µM | > 100 µM | > 100 µM | > 100 µM | > 100 µM | – | –
Cc1c(C)c2c(c(N)c1C#N)C(=O)N(NC(=S)Nc1ccccc1)C2=O | > 100 µM | > 100 µM | > 100 µM | > 100 µM | > 100 µM | > 100 µM | > 100 µM | > 100 µM | > 100 µM | > 100 µM | – | –
O=C(O)C1C2OC(C(Br)C2Br)C1C(=O)O (stereo not drawn) | > 100 µM | > 100 µM | > 100 µM | > 100 µM | > 100 µM | > 100 µM | > 100 µM | > 100 µM | > 100 µM | > 100 µM | – | –
CCOC1OC(C)(C=C(C#N)C#N)CCC1C (stereo not drawn) | > 100 µM | > 100 µM | > 93.9 µM | > 100 µM | 70.6 µM | > 91.7 µM | > 86.6 µM | 55.2 µM | > 100 µM | > 100 µM | – | –
CCOC(=O)c1c(-c2ccc(Cl)cc2)c(C#N)c(=S)n(C2OC(COC(C)=O)C(OC(C)=O)C(OC(C)=O)C2OC(C)=O)c1C (stereo not drawn) | > 100 µM | > 100 µM | > 100 µM | > 100 µM | > 100 µM | > 100 µM | > 100 µM | > 100 µM | 99 µM | > 100 µM | 36.1 µM | –
CC(=O)CCN1CC2CN=NC2(C#N)C1 (stereo not drawn) | > 100 µM | > 100 µM | > 100 µM | > 100 µM | > 100 µM | > 100 µM | > 100 µM | > 70 µM | > 100 µM | > 100 µM | > 100 µM | > 100 µM
COc1cc2c(cc1OCCN1CCN(CCOc3cc4c(cc3OC)C(=O)N3CCC[C@H]3C=N4)CC1)N=C[C@@H]1CCCN1C2=O | > 90.4 µM | > 100 µM | > 100 µM | 40 µM | 15.4 µM | 56.3 µM | > 100 µM | 66.2 µM | > 100 µM | 67.3 µM | – | –
C=C(C)C1CCC2(C)C1CCC1(C)C2CCC2C3(C)C4OC(OC4=O)C(C)(C)C3CCC21C (stereo not drawn) | > 100 µM | > 100 µM | > 100 µM | > 100 µM | > 100 µM | > 100 µM | > 100 µM | > 100 µM | > 100 µM | > 100 µM | – | –
Fc1nc(Sc2ncnc3nc[nH]c23)nc(-c2c3ccccc3c3sc4ccccc4n23)n1 | > 100 µM | > 100 µM | > 100 µM | > 100 µM | > 100 µM | > 100 µM | > 100 µM | > 100 µM | > 100 µM | > 100 µM | – | –
CC[P+](c1ccccc1)(N(C)C)N(C)C | > 100 µM | > 100 µM | > 100 µM | > 100 µM | > 100 µM | > 100 µM | > 100 µM | > 100 µM | > 100 µM | > 100 µM | – | –
Nc1ccc2c3c1cccc3c(=O)n1c3ccc(Cc4ccc5c(c4)nc4c6ccc(N)c7cccc(c(=O)n54)c76)cc3nc21 | > 100 µM | > 100 µM | > 100 µM | > 100 µM | > 100 µM | > 100 µM | > 100 µM | > 100 µM | > 100 µM | > 100 µM | – | –
Nc1ncnc2c1ncn2CCCNO | > 100 µM | > 100 µM | > 100 µM | > 100 µM | > 100 µM | > 100 µM | > 100 µM | > 100 µM | > 100 µM | > 100 µM | – | –
O=c1ccc(=O)c2c1c1[nH]c3ccccc3c1c1c(=O)c3ccccc3c(=O)c21 | > 10 µM | > 10 µM | > 10 µM | > 10 µM | > 10 µM | > 10 µM | > 10 µM | > 10 µM | > 10 µM | > 10 µM | – | –
CCOC(=O)CCC(C(=O)OCC)n1nnc2cc(Nc3c(C)[n+]([O-])c4cc(Cl)ccc4[n+]3[O-])ccc21 (stereo not drawn) | > 100 µM | > 100 µM | > 100 µM | > 100 µM | > 100 µM | > 100 µM | > 100 µM | > 100 µM | > 100 µM | > 100 µM | – | –
CCOC(=O)CC1C(C(=O)OCC)=Cn2c([nH]c3cccc4cccc2c43)=C1C(=O)OCC (stereo not drawn) | > 100 µM | > 100 µM | > 100 µM | > 100 µM | > 100 µM | > 100 µM | > 100 µM | > 100 µM | > 100 µM | > 100 µM | – | –
